Test results taken from ChEMBL document CHEMBL3885881, “DrugMatrix”.

Organism: Rattus norvegicus
Assay: DrugMatrix - Regimen: Daily Repeat
Assay type: toxicity, organism-based, Sprague-Dawley
Set-up: regimen Daily Repeat, gender Male, age 6-8 weeks
Settings: in vivo, sc, 2600 mg/kg, route subcutaneous, dose level High, […]; for ABSOLUTE BASOPHIL / ABSOLUTE EOSINOPHIL / ABSOLUTE LYMPHOCYTE / ABSOLUTE MONOCYTE / ABSOLUTE SEGMENTED NEUTROPHIL / BASOPHIL / EOSINOPHIL / ERYTHROCYTE COUNT / HEMATOCRIT / HEMOGLOBIN / LEUKOCYTE COUNT / LYMPHOCYTE / MEAN CORPUSCULAR HEMOGLOBIN / MEAN CORPUSCULAR HEMOGLOBIN CONCENTRATION / MEAN CORPUSCULAR VOLUME / MONOCYTE / NEUTROPHIL / NUCLEATED RED BLOOD CELLS / PLATELET COUNT: tissue Blood; for ALANINE AMINOTRANSFERASE / ALBUMIN / ALKALINE PHOSPHATASE / ASPARTATE AMINOTRANSFERASE / BLOOD UREA NITROGEN / CARBON DIOXIDE / CHLORIDE / CHOLESTEROL / CREATINE PHOSPHOKINASE / CREATININE / GLUCOSE / LACTATE DEHYDROGENASE / LIPASE / PHOSPHORUS / POTASSIUM / SODIUM / TOTAL BILIRUBIN / TOTAL PROTEIN / URIC ACID: tissue Plasma

## c1ccc2sc(SSc3nc4ccccc4s3)nc2c1 [BENZOTHIAZYL DISULFIDE]
72 h, time 3 day
  ABSOLUTE BASOPHIL: 0 CELLS/uL
  ABSOLUTE EOSINOPHIL: 50.67 CELLS/uL
  ABSOLUTE LYMPHOCYTE: 11758.67 CELLS/uL
  ABSOLUTE MONOCYTE: 266.67 CELLS/uL
  ABSOLUTE SEGMENTED NEUTROPHIL: 857.33 CELLS/uL
  BASOPHIL: 0%
  EOSINOPHIL: 0.33%
  ERYTHROCYTE COUNT: 5.31 x10E6/uL
  HEMATOCRIT: 32.77%
  HEMOGLOBIN: 12.3 G/DL
  LEUKOCYTE COUNT: 12.93 x10E3/uL
  LYMPHOCYTE: 91.33%
  MEAN CORPUSCULAR HEMOGLOBIN: 23.2 pg
  MEAN CORPUSCULAR HEMOGLOBIN CONCENTRATION: 37.53 G/DL
  MEAN CORPUSCULAR VOLUME: 61.7 fL
  MONOCYTE: 2%
  NEUTROPHIL: 6.33%
  NUCLEATED RED BLOOD CELLS: 0 /100WBC
  PLATELET COUNT: 1463.67 x10E3/uL
  ALANINE AMINOTRANSFERASE: 24.33 u/L
  ALBUMIN: 3.73 G/DL
  ALKALINE PHOSPHATASE: 327.67 u/L
  ASPARTATE AMINOTRANSFERASE: 90.67 u/L
  BLOOD UREA NITROGEN: 16 mg/dL
  CARBON DIOXIDE: 24 mmol/L
  CHLORIDE: 104 MEQ/L
  CHOLESTEROL: 76.33 mg/dL
  CREATINE PHOSPHOKINASE: 376.67 u/L
  CREATININE: 0.16 mg/dL
  GLUCOSE: 151.67 mg/dL
  LACTATE DEHYDROGENASE: 543.33 u/L
  LIPASE: 8.33 u/L
  PHOSPHORUS: 12 mg/dL
  POTASSIUM: 6.59 MEQ/L
  SODIUM: 145.13 MEQ/L
  TOTAL BILIRUBIN: 0.3 mg/dL
  TOTAL PROTEIN: 5.2 G/DL
  URIC ACID: 1.63 mg/dL
120 h, time 5 day
  ABSOLUTE BASOPHIL: 0 CELLS/uL
  ABSOLUTE EOSINOPHIL: 0 CELLS/uL
  ABSOLUTE LYMPHOCYTE: 11990.67 CELLS/uL
  ABSOLUTE MONOCYTE: 262 CELLS/uL
  ABSOLUTE SEGMENTED NEUTROPHIL: 914 CELLS/uL
  BASOPHIL: 0%
  EOSINOPHIL: 0%
  ERYTHROCYTE COUNT: 5.81 x10E6/uL
  HEMATOCRIT: 36.07%
  HEMOGLOBIN: 13.33 G/DL
  LEUKOCYTE COUNT: 13.17 x10E3/uL
  LYMPHOCYTE: 91%
  MEAN CORPUSCULAR HEMOGLOBIN: 22.97 pg
  MEAN CORPUSCULAR HEMOGLOBIN CONCENTRATION: 36.97 G/DL
  MEAN CORPUSCULAR VOLUME: 62.1 fL
  MONOCYTE: 2%
  NEUTROPHIL: 7%
  NUCLEATED RED BLOOD CELLS: 0 /100WBC
  PLATELET COUNT: 1293.33 x10E3/uL
  ALANINE AMINOTRANSFERASE: 31 u/L
  ALBUMIN: 3.6 G/DL
  ALKALINE PHOSPHATASE: 266.33 u/L
  ASPARTATE AMINOTRANSFERASE: 72 u/L
  BLOOD UREA NITROGEN: 14.67 mg/dL
  CARBON DIOXIDE: 26.33 mmol/L
  CHLORIDE: 105.67 MEQ/L
  CHOLESTEROL: 83 mg/dL
  CREATINE PHOSPHOKINASE: 133 u/L
  CREATININE: 0.23 mg/dL
  GLUCOSE: 156 mg/dL
  LACTATE DEHYDROGENASE: 67.67 u/L
  LIPASE: 8.67 u/L
  PHOSPHORUS: 12.23 mg/dL
  POTASSIUM: 6.11 MEQ/L
  SODIUM: 145.9 MEQ/L
  TOTAL BILIRUBIN: 0.1 mg/dL
  TOTAL PROTEIN: 5.63 G/DL
  URIC ACID: 2 mg/dL
